2 compounds from patent US20090297579A1, “Control of Cells and Cell Multipotentiality in Three Dimensional Matrices” (Massachusetts Institute of Technology, priority 2006, published 2009) can be followed below.

The subject of assay [1] is MEFs. Briefly: Cell cycle arrest assay with staurosporine: 3D-bilateral structure development / cell mass contraction. The assay is classed as cell-based, mouse. The procedure:
(§1) Cell Cycle Arrest Assays with Staurosporine. Cultures of MEFs were incubated in FM with Staurosporine (20 nM) during 7 days while controls were incubated in FM. At day 6, a pulse of BrdU was applied overnight. MEFs were fixed at day 7 and stained with a mouse monoclonal antibody IGgl anti-BrdU FITC-conjugated (BD PharMingen, 33284×). To assess the dose-response effect of staurosporine on MEFs, these were incubated with different concentrations of staurosporine (0, 2, 20 nM) during 14 days. Visual inspection of the cell mass contraction along these 14 days was performed.
(§2) (A) MEFs were incubated with and without staurosporine (20 nM) during 7 days. Proliferation was studied by means of a BrdU pulse followed by immunostaining against BrdU. (B) MEFs were incubated, during 14 days, with different concentrations of staurosporine (0, 2, 20 nM) to further analyze the effect of proliferation in the contraction phenomenon.

For assay [2], the system named is MEFs. Kind of assay: BrdU pulse proliferation assay with staurosporine. The settings on record: staurosporine 20 nM, 7 days, BrdU pulse at day 6. The class given is cell-based, mouse. Here is the method: as §1, §2
The subject of assay [3] is Mouse Embryonic Fibroblasts (MEFs). Kind of assay: Gel contraction and bilateral/embryoid-like structure development of MEFs in self-assembling peptide scaffold. The class given is cell-based. The settings on record: for Gel contraction: Table 4, 10 days. The procedure: In other experiments with RAD16-I, MEF cells (<8th passage) were trypsinized from 75 cm2 culture flasks, suspended in sucrose 20% and mixed with the self-assembling peptide RAD16-I (BD, Puramatrix) 0.5% to obtain a final MEF concentration of 2·10^6 cells/ml and 0.25% of RAD16-I. This suspension was seeded into inserts (Millipore) and jellified by addition of FM. After jellification, FM was added on the hydrogel. Incubation was performed at 37° C. with 5% CO2 and medium was changed every 2 days.
The shape presents bilateral symmetry (3D-bilateral) and resembles some aspects of a vertebrate embryo undergoing axis formation. Collagen I cultures presented a different morphology, basically consisting of a small spherical ball produced by equal contraction forces, without any distinctive shape or pattern.
The percentage of self-assembling peptide used for these experiments was half of the amount we described above (0.25% vs. 0.5%). […] Thus, in this example, two different parameters that may affect the development of such embryoid-like structures were studied: self-assembling peptide scaffold stiffness and fetal bovine serum concentration. […] Gel contraction and the presence of embryoid-like structure development were analyzed. nt=condition not tested.

For assay [4], the system named is EB-derived cells (mouse embryonic stem cell line R1 Oct4-GFP). Briefly: Alkaline phosphatase activity of EB-derived cells in 3D culture. The class given is cell-based. The settings on record: EB-dc 3D cultures. Here is the method: Fluorescence microscopy was used to monitor GFP expression during EB formation. The EB were harvested and allowed to settle in a tube. The medium was removed and EB were gently treated with trypsin-EDTA 1× (GIBCO). The resultant EB-derived cells were encapsulated into the peptide scaffold (3D cultures) at a final concentration of 2×10^6 cells/mL, as described above, and cultured in control medium (ES medium in the absence of LIF). 2D cultures, in regular culture plates, were also performed as controls. The EB-derived cells were plated into 12-well plate containing control medium (ES medium in the absence of LIF) at a concentration of 760,000 cells/mL (200,000 cells/cm^2). […]
Alkaline phosphatase activity. Alkaline phosphatase enzyme activity (ALP) of 2D and 3D cultures was measured in triplicate cultures before and after the osteogenic differentiation. […] ALP enzyme activity was calculated after measuring the absorbance of the reaction product formed, p-nitrophenol, at 405 nm on a spectrophotometer. […] Total protein levels were determined using a protein detection kit (Bio-Rad) based on the method of Lowry in order to normalize total protein levels. […]

Assay [5] relates to Mouse Embryonic Fibroblasts (MEF). Kind of assay: Alkaline phosphatase activity of MEFs in 3D culture. The class given is cell-based. Here is the method:
Osteogenic differentiation of Mouse Embryonic Fibroblasts (MEF). Mouse embryonic fibroblasts (MEFs) were purchased from ATCC(SCRC-1008). They were isolated from mouse embryos derived from C57BL/6 mothers at 14 days of gestation (E14). The MEFs were expanded prior to osteogenic induction in MEF culture medium of DMEM (high glucose) containing 10% FBS (fetal bovine serum, Hyclone), 4 mM L-glutamine (GIBCO), and 1% (v/v) penicillin-streptomycin (GIBCO). The differentiation experiments were carried out using cells between passages 3 and 5. The MEFs were encapsulated into the peptide scaffold (3D cultures) at a final concentration of 2×10^6 cells/mL, as described above (3D cultures). 2D cultures were also performed by culturing MEFs into 12-well regular culture plates. Both the 2D and 3D cultures were maintained in MEF culture medium for 2-4 days (FIG. 1B). Next, the MEF medium was changed by osteogenic medium (same as in mESC osteogenic induction section). Also, […] of 1-alpha,25-(OH)2 vitamin D3 (Sigma) was added to the osteogenic medium as previously described for mouse-derived NIH 3T3 fibroblasts. The cultures were maintained for different time periods (FIG. 1B, STAGE 3) in osteogenic medium at 37° C. in humidified air with 5% CO2. The medium was regularly exchanged with fresh osteogenic medium.
Alkaline phosphatase activity. Alkaline phosphatase enzyme activity (ALP) of 2D and 3D cultures was measured in triplicate cultures before and after the osteogenic differentiation. The cultures were rinsed twice with […] (TBS, 50 mM Tris base, 0.15 M NaCl, pH 7.4) and then the cells were incubated with 5 mM p-nitrophenyl phosphate (p-nitrophenyl phosphate disodium salt tablets, Sigma) solution in glycine buffer (50 mM glycine, 1 mM MgCl2, pH 10.5) for 30 min at 37° C. ALP enzyme activity was calculated after measuring the absorbance of the reaction product formed, p-nitrophenol, at 405 nm on a spectrophotometer. Standards were prepared by consecutively diluting 10 mM p-nitrophenol (Sigma) solution in glycine buffer at concentrations ranging from 0.0001 mM to 0.06 mM. Total protein levels were determined using a protein detection kit (Bio-Rad) based on the method of Lowry in order to normalize total protein levels. The final APL activity was expressed in units/mg of protein (one unit will hydrolyze 1 micromoles of p-nitrophenyl phosphate per minute at pH 10.5).

Entries after “also recorded” stand apart in the source; their conditions may differ.

Take `CN[C@@H]1C[C@H]2O[C@@](C)([C@@H]1OC)n1c3ccccc3c3c4c(c5c6ccccc6n2c5c31)C(=O)NC4` [Staurosporine]: the “Effect on 3D-bilateral structure development at diluted concentrations” value in the assay with MEFs [1] (staurosporine 0, 2, 20 nM, 14 days) is given as “dose-response inhibitory effect”. The “Development of the 3D-bilateral structure” value with MEFs [1] (staurosporine 20 nM, 7 days, MEFs in RAD16-I) is “clearly abrogated; also recorded: prevented”. The “Incorporation of BrdU” value in the assay on MEFs [2] is on record as “no incorporation”.

For the compound AcN-RADARADARADARADA-CONH2 [Peptide], the Contraction result is listed as “No contraction” in assay [3] (Table 3, 0.25% RAD, 2% FBS); “Low” in assay [3] (Table 3, 0.25% RAD, 10% FBS); “High contraction;” in assay [3] (Table 3, 0.25% RAD, 15% FBS); “No contraction” in assay [3] (Table 3, 0.5% RAD, 2% FBS); “Very low” in assay [3] (Table 3, 0.5% RAD, 10% FBS); “Low” in assay [3] (Table 3, 0.5% RAD, 15% FBS). Besides, the Structure formation entry in assay [3] (Table 3, 0.25% RAD, 15% FBS) was “bilateral structures”. For the same compound, the Gel contraction entry is “Low” in assay [3] (peptide gel 0.25%, FBS 2%); “High” in assay [3] (peptide gel 0.25%, FBS 15%); “Low” in assay [3] (peptide gel 0.5%, FBS 15%). The ALP activity in assay [4] (control (no osteogenic induction)) was found to be 190.2 U/mg; in assay [4] (osteogenic-induced), 87 U/mg; in assay [5] (MEF 3D control cultures, after culture), 68.1 U/mg; in assay [5] (MEF 3D control cultures, initial), 1.8 U/mg; in assay [5] (MEF 3D osteogenic cultures, after osteogenic induction) it was 118.3 U/mg; in assay [5] (MEF 3D osteogenic cultures, initial), 1.5 U/mg.
